Source: ChEMBL document CHEMBL1201862, “PubChem BioAssay data set” (2004)
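48-hour exposure; five concentrations; linearly interpolated endpoints. At the GI50, growth is halved.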 Calls of active or inactive are those of the source. Rule as the data show it: active = GI50 up to about 1.1 µM and inactive = higher.

What was measured:
Experiment in all cases: DTP human tumour cell line panel, 48 h
[1] = test system: 786-0
[2] = test system: A498
[3] = test system: A549
[4] = test system: ACHN
[5] = test system: BT-549
[6] = test system: CAKI-1
[7] = test system: CCRF-CEM
[8] = test system: COLO 205
[9] = test system: DU-145
[10] = test system: EKVX
[11] = test system: HCC 2998
[12] = test system: HCT-116
[13] = test system: HCT-15
[14] = test system: HL-60
[15] = test system: HOP-62
[16] = test system: HT-29
[17] = test system: Hs-578T
[18] = test system: IGROV-1
[19] = test system: K562
[20] = test system: KM12
[21] = test system: LOX IMVI
[22] = test system: M14
[23] = test system: MCF7
[24] = test system: MDA-MB-231
[25] = test system: MDA-MB-435
[26] = test system: MDA-N
[27] = test system: MOLT-4
[28] = test system: Malme-3M
[29] = test system: NCI-H226
[30] = test system: NCI-H23
[31] = test system: NCI-H460
[32] = test system: NCI-H522
[33] = test system: NCI/ADR-RES
[34] = test system: OVCAR-3
[35] = test system: OVCAR-5
[36] = test system: OVCAR-8
[37] = test system: PC-3
[38] = test system: RPMI-8226
[39] = test system: SF-268
[40] = test system: SF-295
[41] = test system: SF-539
[42] = test system: SK-MEL-28
[43] = test system: SK-MEL-2
[44] = test system: SK-MEL-5
[45] = test system: SK-OV-3
[46] = test system: SN12C
[47] = test system: SNB-19
[48] = test system: SNB-75
[49] = test system: SR
[50] = test system: SW-620
[51] = test system: T47D
[52] = test system: TK-10
[53] = test system: U-251
[54] = test system: UACC-257
[55] = test system: UACC-62
[56] = test system: UO-31
[57] = test system: OVCAR-4
[58] = test system: RXF 393

In the case of `COc1ccc(OC2OC(COC(c3ccccc3)(c3ccc(OC)cc3)c3ccc(OC)cc3)C(O)C(O)C2O)cc1` (stereo not given), the GI50 [1] is reported as 2.32 µM (inactive), the GI50 [2] is reported as 11.7 µM (inactive) and the GI50 [3] is reported as 2.99 µM (inactive). The GI50 [4] was 4 µM (inactive), the GI50 [5] was 12.5 µM (inactive) and the GI50 [6] was 4.75 µM (inactive). The GI50 [7] was 2.08 µM (inactive), the GI50 [8] was 3.85 µM (inactive) and the GI50 [9] was 21.3 µM (inactive). The GI50 [10] was 4.7 µM (inactive), the GI50 [11] was 3.44 µM (inactive) and the GI50 [12] was 3.26 µM (inactive). For the same compound, the GI50 [13] was 2.86 µM, the GI50 [14] was 2.58 µM (inactive) and the GI50 [15] was 11.4 µM (inactive). The GI50 [16] was 2.4 µM (inactive), the GI50 [17] was 3.96 µM (inactive) and the GI50 [18] was 5.93 µM (inactive). For the same compound, the GI50 [19] was 2.84 µM (inactive), the GI50 [20] was 3.55 µM (inactive) and the GI50 [21] was 1.8 µM (inactive). The GI50 [22] was 2.84 µM (inactive), the GI50 [23] was 3.75 µM (inactive) and the GI50 [24] was 4.6 µM (inactive). For the same compound, the GI50 [25] was 3.13 µM (inactive), the GI50 [26] was 4.37 µM (inactive) and the GI50 [27] was 1.33 µM (inactive). The GI50 [28] was 2.77 µM (inactive), the GI50 [29] was 12.3 µM (inactive) and the GI50 [30] was 3.66 µM (inactive). The GI50 [31] was 2.99 µM (inactive), the GI50 [32] was 3.49 µM (inactive) and the GI50 [33] was 3.48 µM (inactive). The GI50 [34] was 4.21 µM (inactive), the GI50 [35] was 6.25 µM (inactive) and the GI50 [36] was 5.24 µM (inactive). The GI50 [37] was 2.09 µM (inactive), the GI50 [38] was 4.47 µM (inactive) and the GI50 [39] was 3.39 µM (inactive). The GI50 [40] was 4.28 µM (inactive), the GI50 [41] was 4.42 µM (inactive) and the GI50 [42] was 2.41 µM (inactive). The GI50 [43] was 2.61 µM (inactive), the GI50 [44] was 5.06 µM (inactive) and the GI50 [45] was 6.43 µM (inactive). The GI50 [46] was 2.51 µM (inactive), the GI50 [47] was 9.66 µM (inactive) and the GI50 [48] was 3.32 µM (inactive). The GI50 [49] was 3.74 µM (inactive), the GI50 [50] was 3.77 µM (inactive) and the GI50 [51] was 6.76 µM (inactive). The GI50 [52] was 5.33 µM (inactive), the GI50 [53] was 3.6 µM (inactive) and the GI50 [54] was 6.64 µM (inactive). For the same compound, the GI50 [55] was 3.43 µM (inactive) and the GI50 [56] was 2.06 µM (inactive).

For `COC(=O)C1=C(C(=O)OC)C2(C)CCC(=O)C1O2` (stereo not given), the GI50 [1] was > 10 µM (inactive), the GI50 [2] was > 10 µM (inactive) and the GI50 [3] was > 10 µM (inactive). For the same compound, the GI50 [4] was > 10 µM (inactive), the GI50 [5] was > 10 µM (inactive) and the GI50 [6] was > 10 µM (inactive). The GI50 [7] was > 10 µM (inactive), the GI50 [8] was > 10 µM (inactive) and the GI50 [9] was > 10 µM (inactive). The GI50 [10] was > 10 µM (inactive), the GI50 [11] was > 10 µM (inactive) and the GI50 [12] was > 10 µM (inactive). For the same compound, the GI50 [13] was greater than 10 µM, the GI50 [14] was > 10 µM (inactive) and the GI50 [15] was > 10 µM (inactive). For the same compound, the GI50 [16] was > 10 µM (inactive), the GI50 [17] was > 10 µM (inactive) and the GI50 [18] was > 10 µM (inactive). For the same compound, the GI50 [19] was > 10 µM (inactive), the GI50 [20] was > 10 µM (inactive) and the GI50 [21] was > 10 µM (inactive). The GI50 [22] was > 10 µM (inactive), the GI50 [23] was > 10 µM (inactive) and the GI50 [24] was > 10 µM (inactive). The GI50 [25] was > 10 µM (inactive), the GI50 [26] was > 10 µM (inactive) and the GI50 [27] was > 10 µM (inactive). For the same compound, the GI50 [28] was > 10 µM (inactive), the GI50 [29] was > 10 µM (inactive) and the GI50 [30] was > 10 µM (inactive). The GI50 [31] was > 10 µM (inactive), the GI50 [33] was > 10 µM (inactive) and the GI50 [34] was > 10 µM (inactive). The GI50 [57] was > 10 µM (inactive), the GI50 [35] was > 10 µM (inactive) and the GI50 [36] was > 10 µM (inactive). The GI50 [37] was > 10 µM (inactive), the GI50 [38] was > 10 µM (inactive) and the GI50 [58] was > 10 µM (inactive). For the same compound, the GI50 [39] was > 10 µM (inactive), the GI50 [40] was > 10 µM (inactive) and the GI50 [41] was > 10 µM (inactive). The GI50 [42] was > 10 µM (inactive), the GI50 [43] was > 10 µM (inactive) and the GI50 [44] was > 10 µM (inactive). The GI50 [45] was > 10 µM (inactive), the GI50 [46] was > 10 µM (inactive) and the GI50 [47] was > 10 µM (inactive). For the same compound, the GI50 [48] was 2.7 µM (inactive), the GI50 [49] was > 10 µM (inactive) and the GI50 [50] was > 10 µM (inactive). For the same compound, the GI50 [51] was > 10 µM (inactive), the GI50 [52] was > 10 µM (inactive) and the GI50 [53] was > 10 µM (inactive). The GI50 [54] was > 10 µM (inactive), the GI50 [55] was > 10 µM (inactive) and the GI50 [56] was > 10 µM (inactive).

For `O=[Se](O)O`, the GI50 [1] was 2.47 µM (inactive), the GI50 [2] was 19 µM (inactive) and the GI50 [3] was 1.15 µM (inactive). For the same compound, the GI50 [4] was 4 µM (inactive), the GI50 [5] was 4.9 µM (inactive) and the GI50 [6] was 34.2 µM (inactive). For the same compound, the GI50 [8] was > 30.7 µM (inactive), the GI50 [9] was 1.47 µM (inactive) and the GI50 [10] was 2.11 µM (inactive). The GI50 [11] was > 20.3 µM (inactive), the GI50 [12] was 2.36 µM (inactive) and the GI50 [13] was 3.15 µM. The GI50 [14] was 10.4 µM (inactive), the GI50 [15] was 0.577 µM (active) and the GI50 [16] was 3.17 µM (inactive). For the same compound, the GI50 [17] was 0.67 µM (active), the GI50 [18] was 0.826 µM (active) and the GI50 [19] was > 28.2 µM (inactive). The GI50 [20] was 1.63 µM (inactive), the GI50 [21] was 2.76 µM (inactive) and the GI50 [22] was 3.44 µM (inactive). For the same compound, the GI50 [23] was 9.75 µM (inactive), the GI50 [24] was 1 µM (active) and the GI50 [25] was 3.77 µM (inactive). The GI50 [26] was 2.24 µM (inactive), the GI50 [27] was > 20.1 µM (inactive) and the GI50 [28] was 31.7 µM (inactive). The GI50 [29] was 0.828 µM (active), the GI50 [30] was 3.72 µM (inactive) and the GI50 [31] was 0.762 µM (active). For the same compound, the GI50 [32] was 12.2 µM (inactive), the GI50 [33] was 4.57 µM (inactive) and the GI50 [34] was 4.16 µM (inactive). The GI50 [57] was 7.06 µM (inactive), the GI50 [35] was 1.95 µM (inactive) and the GI50 [36] was 2.88 µM (inactive). The GI50 [37] was 1.1 µM (active), the GI50 [38] was 3.29 µM (inactive) and the GI50 [58] was 3.76 µM (inactive). The GI50 [39] was 1.18 µM (inactive), the GI50 [40] was 0.536 µM (active) and the GI50 [41] was 0.912 µM (active). For the same compound, the GI50 [42] was 3.27 µM (inactive), the GI50 [43] was 2.6 µM (inactive) and the GI50 [44] was 2.33 µM (inactive). The GI50 [45] was 0.984 µM (active), the GI50 [46] was 1.24 µM (inactive) and the GI50 [47] was 1.03 µM (active). The GI50 [48] was 1.49 µM (inactive), the GI50 [49] was 10 µM (inactive) and the GI50 [50] was 12.9 µM (inactive). For the same compound, the GI50 [51] was > 40 µM (inactive), the GI50 [52] was 6.67 µM (inactive) and the GI50 [53] was 0.815 µM (active). For the same compound, the GI50 [54] was 12.6 µM (inactive), the GI50 [55] was 1.32 µM (inactive) and the GI50 [56] was 2.95 µM (inactive).
